Results as given in publication PMC11261605, “Photocontrolled Reversible Amyloid Fibril Formation of Parathyroid Hormone-Derived Peptides” (Bioconjugate Chemistry, 2024).
≈ marks a conversion by molar mass, not a printed value. *1 amine or outer side, *2 acyl side, *3 side chain or, on linkers, in order; H or OH if unused. Where a SMILES comes first, the peptide text is derived from it. Where no end group is shown, it is not given here. [ ]: non-standard residue; d: D form. X1 = O=C(c1cccc(N=Nc2ccc(CN[*:1])cc2)c1)[*:2]

How the values were obtained:
[1] = Maximal solubility in buffered solution; format: physicochemical; details: phosphate buffer, aqueous buffer; maximal solubility from solid (0.5 mg portions into 1 mL until precipitate); 50 mM aqueous Na2HPO4 pH 7.4; centrifuged 10 000 rpm 1 h 4 °C; supernatant by UV/vis absorbance
Description: UV/vis-absorbance spectroscopy was measured on a JASCO V-660 absorbance spectrometer in a 1 cm quartz glass cuvette. For PTH25–37, the absorbance was measured at 205 nm with a molar extinction coefficient of 49.310 cm^–1 M^–1; trans-azobenzene containing peptides were measured at 327 nm with a molar extinction coefficient of 13.000 cm^–1 M^–1. CD spectroscopy was measured with a JASCO J-1500 CD Spectrometer in either a 1 mm. As buffered solution, a 50 mM aqueous Na2HPO4 buffer solution was used with a pH value adjusted to 7.4. Transmission was measured with a Litesizer DLS 500 from Anton Paar using a 3 mm × 3 mm quartz glass cuvette. The irradiation wavelength was 658 nm. The equilibration time was 1 min, and the measurement time was 10 s. The temperature was maintained at 25 °C.
To determine the maximal solubility of a peptide, small amounts (0.5 mg) of the respective peptide were added to 1 mL of buffered solution and shacked for 10 s until an insoluble precipitate was visible. The suspensions were centrifuged at 10 000 rpm for 1 h at 4 °C, and the supernatant was transferred to another tube. The remaining monomer concentration was determined using UV/vis-absorbance spectroscopy. To determine the critical concentration ccr, two samples were prepared for each peptide according to the procedure for the ThT monitored fibrillization assay, one with ThT as a reference sample and the other one without ThT. Twenty hours after the reference sample reached the stationary phase, the fibril containing solutions from the sample without ThT were transferred to a tube and centrifuged at 10 000 rpm for 1 h at room temperature. The supernatant was transferred to another tube, and the concentration of the remaining monomers was determined using UV/vis-absorbance spectroscopy at 278 nm with a molar extinction coefficient of 3750 cm^–1 M^–1 for the azobenzene containing peptides and at 205 nm with a molar extinction coefficient of 49 310 cm^–1 M^–1 for PTH25–37.

[2] = tested on: 3T3 cells; test: Resazurin reduction cell viability assay on 3T3 fibroblasts; format: cell-based, murine; details: trans-isomers, serial dilutions, 24 h or 96 h incubation, n = 8 per treatment, 3 independent experiments
Description: (§1) Cell viability was determined for trans-P4, trans-P8, and trans-P12 on NHDF as well as 3T3 fibroblasts with a resazurin reduction assay. Briefly, cells were seeded at desired cell densities in corresponding culture media supplemented with 10% FCS and penicillin/streptomycin in 96-well plates on day 0 and incubated overnight under standard cell culture conditions. On day 1, serial dilutions of the peptides in cell culture media were prepared. Then, medium (background and negative control–100% viability), TritonX in medium f.c. 0.025% (postive control–0% viability), and the peptide dilutions were added with one treatment per column (n = 8). Incubation for 24 h or 96 h under standard cell culture conditions followed. On day of measurement, resazurin stock solution was added to a final concentration of 44 μM into each well. After 2 h incubation, the resorufin fluorescence was measured with a Cytation 5 plate reader system. Means and standard deviation of each column were calculated. Experiments were repeated independently 3 times, and average values were evaluated (see Figure S12).
(§2) Figure S12: Cell viability assay of trans-P4, trans-P8, and trans-P12 on NHDF (human, adult, fibroblasts) and 3T3 (murine,
(§3) embryonal, fibroblasts) cells after 24 h (blue) and 96 h (orange). 100% cell viability corresponds to the value of the negative,
(§4) (1 picture or pasted object on this page, not shown here)

[3] = tested on: NHDF cells; test: Resazurin reduction cell viability assay on NHDF fibroblasts; format: cell-based, human; details: trans-isomers, serial dilutions, 24 h or 96 h incubation, n = 8 per treatment, 3 independent experiments
Description: as §1, §2, §3, §4

Row | Compound | solubility thermodynamic at 10 s [1] [µM] | toxicity toward 3T3 cells [2] | toxicity toward NHDF cells [3]
1 | CC(C)C[C@H](NC(=O)[C@H](C)NC(=O)c1cccc(N=Nc2ccc(CNC(=O)[C@@H](NC(=O)[C@H](Cc3ccccc3)NC(=O)[C@H](CC(N)=O)NC(=O)[C@H](Cc3c[nH]cn3)NC(=O)[C@@H](NC(=O)[C@H](CC(=O)O)NC(=O)[C@H](CCC(N)=O)NC(=O)[C@H](CC(C)C)NC(=O)[C@H](CCCCN)NC(=O)[C@H](CCCCN)NC(=O)[C@@H](N)CCCNC(=N)N)C(C)C)C(C)C)cc2)c1)C(=O)O [P11] (H-RKKLQDVHNFV[X1]AL-OH) | 20 (≈ 36.1 µg/mL) |  | 
2 | CC(C)C[C@H](NC(=O)[C@H](C)NC(=O)[C@@H](NC(=O)[C@H](Cc1ccccc1)NC(=O)[C@H](CC(N)=O)NC(=O)[C@H](Cc1c[nH]cn1)NC(=O)[C@@H](NC(=O)[C@H](CC(=O)O)NC(=O)c1cccc(N=Nc2ccc(CNC(=O)[C@H](CCC(N)=O)NC(=O)[C@H](CC(C)C)NC(=O)[C@H](CCCCN)NC(=O)[C@H](CCCCN)NC(=O)[C@@H](N)CCCNC(=N)N)cc2)c1)C(C)C)C(C)C)C(=O)O [P6] (H-RKKLQ[X1]DVHNFVAL-OH) | 20 (≈ 36.1 µg/mL) |  | 
3 | CC(C)C[C@H](NC(=O)[C@H](C)NC(=O)c1cccc(N=Nc2ccc(CNC(=O)[C@H](Cc3ccccc3)NC(=O)[C@H](CC(N)=O)NC(=O)[C@H](Cc3c[nH]cn3)NC(=O)[C@@H](NC(=O)[C@H](CC(=O)O)NC(=O)[C@H](CCC(N)=O)NC(=O)[C@H](CC(C)C)NC(=O)[C@H](CCCCN)NC(=O)[C@H](CCCCN)NC(=O)[C@@H](N)CCCNC(=N)N)C(C)C)cc2)c1)C(=O)O [P12] (H-RKKLQDVHNF[X1]AL-OH) | 135 (≈ 230 µg/mL) | did not observe any toxicity | did not observe any toxicity
4 | CC(C)C[C@H](NC(=O)[C@H](C)NC(=O)[C@@H](NC(=O)[C@H](Cc1ccccc1)NC(=O)[C@H](CC(N)=O)NC(=O)[C@H](Cc1c[nH]cn1)NC(=O)[C@@H](NC(=O)[C@H](CC(=O)O)NC(=O)[C@H](CCC(N)=O)NC(=O)[C@H](CC(C)C)NC(=O)[C@H](CCCCN)NC(=O)c1cccc(N=Nc2ccc(CNC(=O)[C@H](CCCCN)NC(=O)[C@@H](N)CCCNC(=N)N)cc2)c1)C(C)C)C(C)C)C(=O)O [P8] (H-RK[X1]KLQDVHNFVAL-OH) | 200 (≈ 361 µg/mL) | did not observe any toxicity | did not observe any toxicity
5 | CC(C)C[C@H](NC(=O)[C@H](C)NC(=O)[C@@H](NC(=O)[C@H](Cc1ccccc1)NC(=O)[C@H](CC(N)=O)NC(=O)[C@H](Cc1c[nH]cn1)NC(=O)[C@@H](NC(=O)c1cccc(N=Nc2ccc(CNC(=O)[C@H](CC(=O)O)NC(=O)[C@H](CCC(N)=O)NC(=O)[C@H](CC(C)C)NC(=O)[C@H](CCCCN)NC(=O)[C@H](CCCCN)NC(=O)[C@@H](N)CCCNC(=N)N)cc2)c1)C(C)C)C(C)C)C(=O)O [P1] (H-RKKLQD[X1]VHNFVAL-OH) | 90 (≈ 162 µg/mL) |  | 
6 | CC(C)C[C@H](NC(=O)[C@H](C)NC(=O)[C@@H](NC(=O)[C@H](Cc1ccccc1)NC(=O)[C@H](CC(N)=O)NC(=O)[C@H](Cc1c[nH]cn1)NC(=O)c1cccc(N=Nc2ccc(CNC(=O)[C@@H](NC(=O)[C@H](CC(=O)O)NC(=O)[C@H](CCC(N)=O)NC(=O)[C@H](CC(C)C)NC(=O)[C@H](CCCCN)NC(=O)[C@H](CCCCN)NC(=O)[C@@H](N)CCCNC(=N)N)C(C)C)cc2)c1)C(C)C)C(=O)O [P2] (H-RKKLQDV[X1]HNFVAL-OH) | 60 (≈ 108 µg/mL) |  | 
7 | CC(C)C[C@H](NC(=O)[C@H](C)NC(=O)[C@@H](NC(=O)[C@H](Cc1ccccc1)NC(=O)[C@H](CC(N)=O)NC(=O)[C@H](Cc1c[nH]cn1)NC(=O)c1cccc(N=Nc2ccc(CNC(=O)[C@H](CCC(N)=O)NC(=O)[C@H](CC(C)C)NC(=O)[C@H](CCCCN)NC(=O)[C@H](CCCCN)NC(=O)[C@@H](N)CCCNC(=N)N)cc2)c1)C(C)C)C(=O)O [P5] (H-RKKLQ[X1]HNFVAL-OH) | 25 (≈ 39.8 µg/mL) |  | 
8 | CC(C)C[C@H](NC(=O)[C@H](C)NC(=O)[C@@H](NC(=O)[C@H](Cc1ccccc1)NC(=O)[C@H](CC(N)=O)NC(=O)[C@H](Cc1c[nH]cn1)NC(=O)[C@@H](NC(=O)c1cccc(N=Nc2ccc(CNC(=O)[C@H](CCC(N)=O)NC(=O)[C@H](CC(C)C)NC(=O)[C@H](CCCCN)NC(=O)[C@H](CCCCN)NC(=O)[C@@H](N)CCCNC(=N)N)cc2)c1)C(C)C)C(C)C)C(=O)O [P3] (H-RKKLQ[X1]VHNFVAL-OH) | 35 (≈ 59.2 µg/mL) |  | 
9 | CC(C)C[C@H](NC(=O)[C@H](C)NC(=O)[C@@H](NC(=O)[C@H](Cc1ccccc1)NC(=O)[C@H](CC(N)=O)NC(=O)[C@H](Cc1c[nH]cn1)NC(=O)c1cccc(N=Nc2ccc(CNC(=O)[C@H](CC(=O)O)NC(=O)[C@H](CCC(N)=O)NC(=O)[C@H](CC(C)C)NC(=O)[C@H](CCCCN)NC(=O)[C@H](CCCCN)NC(=O)[C@@H](N)CCCNC(=N)N)cc2)c1)C(C)C)C(=O)O [P4] (H-RKKLQD[X1]HNFVAL-OH) | 370 (≈ 631 µg/mL) | did not observe any toxicity | did not observe any toxicity
10 | CC(C)C[C@H](NC(=O)[C@H](C)NC(=O)[C@@H](NC(=O)[C@H](Cc1ccccc1)NC(=O)c1cccc(N=Nc2ccc(CNC(=O)[C@H](CC(N)=O)NC(=O)[C@H](Cc3c[nH]cn3)NC(=O)[C@@H](NC(=O)[C@H](CC(=O)O)NC(=O)[C@H](CCC(N)=O)NC(=O)[C@H](CC(C)C)NC(=O)[C@H](CCCCN)NC(=O)[C@H](CCCCN)NC(=O)[C@@H](N)CCCNC(=N)N)C(C)C)cc2)c1)C(C)C)C(=O)O [P10] (H-RKKLQDVHN[X1]FVAL-OH) | 7 (≈ 12.6 µg/mL) |  | 
11 | RKKLQDVHNFVAL [PTH25–37, reference compound] | > 500 |  | 
12 | CC(C)C[C@H](NC(=O)[C@H](C)NC(=O)[C@@H](NC(=O)[C@H](Cc1ccccc1)NC(=O)[C@H](CC(N)=O)NC(=O)[C@H](Cc1c[nH]cn1)NC(=O)[C@@H](NC(=O)[C@H](CC(=O)O)NC(=O)[C@H](CCC(N)=O)NC(=O)[C@H](CC(C)C)NC(=O)[C@H](CCCCN)NC(=O)c1cccc(N=Nc2ccc(CNC(=O)[C@@H](N)CCCNC(=N)N)cc2)c1)C(C)C)C(C)C)C(=O)O [P9] (H-R[X1]KLQDVHNFVAL-OH) | 130 (≈ 218 µg/mL) |  | 
13 | CC(C)C[C@H](NC(=O)[C@H](C)NC(=O)[C@@H](NC(=O)[C@H](Cc1ccccc1)NC(=O)[C@H](CC(N)=O)NC(=O)[C@H](Cc1c[nH]cn1)NC(=O)[C@@H](NC(=O)[C@H](CC(=O)O)NC(=O)[C@H](CCC(N)=O)NC(=O)c1cccc(N=Nc2ccc(CNC(=O)[C@H](CC(C)C)NC(=O)[C@H](CCCCN)NC(=O)[C@H](CCCCN)NC(=O)[C@@H](N)CCCNC(=N)N)cc2)c1)C(C)C)C(C)C)C(=O)O [P7] (H-RKKL[X1]QDVHNFVAL-OH) | 140 (≈ 253 µg/mL) |  | 
